Measurements published in paper PMC5720837, “Identification of a 4-fluorobenzyl L-valinate amide benzoxaborole (AN11736) as a potential development candidate for the treatment of Animal African Trypanosomiasis (AAT)” (Bioorganic & Medicinal Chemistry Letters, 2018).

Legend:
[1] = test system: Trypanosoma vivax (T. vivax STIB719/ILRAD 560 strain), bloodstream form; assay: Whole cell Alamar Blue assay, T. vivax (48 h ex vivo); assay type: cell-based; details: Trypanosoma vivax; T. vivax STIB719/ILRAD 560, 48 h ex vivo Alamar Blue assay
Method: (§1) Activity of compounds 1–71 against T. congolense and T. vivax was determined using the whole cell assays as described ^6 and their IC50 values are summarized in Table 1.
(§2) [6] Assay methods for determination of T. c. and T. v. […] Culture media consisted of complete HMI-9 (IMDM) with 20% bovine serum. To ensure log growth phase, trypanosomes were sub-cultured at appropriate dilutions every 2–3 days. Bloodstream form Trypanosoma vivax (T. vivax) cannot be cultured axenically, therefore trypanosomes (T. vivax STIB719/ILRAD 560 strain) were harvested from a highly parasitemia mouse via cardiac puncture and used directly in the ex vivo drug sensitivity assay on the same day. […] Parasite starting concentrations of 2 × 10^5 (T. c.) and 4 × 10^5 (T. v.) were calculated respectively, using a cell analyzer system or haemo-cytometer, followed by quantification at 536 nm excitation and 588 nm emission wavelengths using a […] reader. Test compounds were prepared as 10 mg/mL DMSO stocks for each assay run. Compounds were assayed in at least three separate, independent test runs and an 11-point dilution curve was used to determine the IC50 values. Data points were averaged to generate sigmoidal dose-response curves and IC50 values were determined using Softmax Pro 5.2 software.

[2] = test system: Trypanosoma congolense (T. congolense IL-3000 strain), bloodstream form; assay: Whole cell Alamar Blue assay, T. congolense (72 h in vitro); assay type: cell-based; details: T. congolense IL-3000, 72 h in vitro Alamar Blue assay
Method: as §1, §2

[3] = In vitro metabolic stability, mouse S9; assay type: in vitro ADME; details: S9 fraction
Method: (§3) Selected compounds were screened in both mouse and bovine in vitro metabolic stability assays (mouse S9 and bovine S9), as summarized in Table 2. These two species were chosen because the primary in vivo assays were conducted in mice, and the target animal of this research program is cattle. […] We evaluated the efficacy of selected compounds in two in vivo mouse models of infection, against T. congolense and T. vivax, respectively. Mice were infected with either 1 × 10^5 T. c. parasites or 1 × 10^4 T. v. parasites, and then treated with a test compound via intraperitoneal administration for 1, 2 or 4 consecutive days. The mice were then monitored for the presence of parasitemia for up to 60 days post treatment.[7] We tested in T. c. model first, then followed up with T. v. for interesting compounds. […] We selected compound 5 (AN11736) to progress to exploratory studies to determine the efficacy and safety in a preliminary formulation against induced infections of T. vivax and T. congolense in cattle.[8]

[4] = test system: T. c. parasites (STIB736/IL1180 strain); assay: In vivo mouse model of T. congolense infection; set-up: species or system NMRI female mice; details: intraperitoneal, monitored 60 days post treatment
Method: as §3
[7] Methods for testing compound efficacy in mouse models: In vivo mouse efficacy studies were performed at the Swiss TPH, using established mouse models of infection for T. c. and T. v. NMRI female mice were independently infected either with 1 × 10^5T. c. parasites/mouse (STIB736/IL1180 strain) or 1 × 10^4T. v. parasites/mouse (STIB719/ILRAD560 strain) using an intraperitoneal route. Parasitemia was allowed to develop over 7 days (T. c.) or 3 days (T. v.), respectively, before treatment was administered. Compounds were administered via intraperitoneal injection in 10% DMSO/water. Four mice were used per treatment group. Mice were monitored for the presence of trypanosomes, via tail blood examination microscopically with twice-per-week parasitemia checks for 60 days post treatment. Parasitemia was graded on a scale of 0–3, with 0 indicating no trypanosomes seen in 20 fields of view, 1 indicating the presence of 1–5 trypanosomes per field, 2 indicating the presence of 6–20 trypanosomes per field and 3 indicating greater than 20 trypanosomes per field. Mice scoring 2 or 3 were immediately euthanized. After 60 days, aparasitemic mice were considered cured. Untreated control mice survive on average for 10 and 6 days post infection for T. c. and T. v., respectively. All in vivo mouse experiments were conducted in accordance with the strict guidelines set out by the Swiss Federal Veterinary Office, under the ethical approval of license number #2813.

[5] = In vitro metabolic stability, bovine S9; assay type: in vitro ADME; details: S9 fraction
Method: as §3

SMILES	IC50 [1] [nM]	IC50 ([2]; Trypanosoma congolense, 72 h) [nM]	other results
C[C@H](NC(=O)c1ccc2c(c1)B(O)OC2)C(=O)OCc1ccccc1 [Compound 1]	69	5	IC50 [2]: 4.9 nM
CC(C)[C@H](NC(=O)c1ccc2c(c1)B(O)OC2(C)C)C(=O)OCc1ccccc1 [Compound 3]	9190	2580	–
Cc1c(C(=O)N[C@H](C(=O)OCc2ccc(Cl)cc2)C(C)C)ccc2c1B(O)OC2 [Compound 6]	2.9	0.47	microsomal CLint [3]: 17 µL/min/mg; Efficacy in mouse model T. c., n/m (mice survived / total mice in group) ([4]; 1 × 10 mg/kg): 0/4 (1 × 10); microsomal CLint [5]: 9.1 µL/min/mg
Cc1c(C(=O)N[C@H](C(=O)OCc2cccc(F)c2)C(C)C)ccc2c1B(O)OC2 [Compound 7]	0.1	0.59	–
Cc1c(C(=O)N[C@H](C(=O)OCc2cc(F)cc(F)c2)C(C)C)ccc2c1B(O)OC2 [Compound 9]	0.1	0.18	–
Cc1c(C(=O)N[C@H](C(=O)OCc2cccc(C(F)(F)F)c2)C(C)C)ccc2c1B(O)OC2 [Compound 10]	2.7	0.22	–
Cc1c(C(=O)N[C@H](C(=O)OCc2ccc(C(F)(F)F)cc2)C(C)C)ccc2c1B(O)OC2 [Compound 11]	24	0.16	–
Cc1c(C(=O)N[C@H](C(=O)OCc2cccc(OC(F)(F)F)c2)C(C)C)ccc2c1B(O)OC2 [Compound 12]	19	0.31	–
Cc1c(C(=O)N[C@H](C(=O)OCc2ccc(OC(F)(F)F)cc2)C(C)C)ccc2c1B(O)OC2 [Compound 13]	0.04	0.23	–
Cc1c(C(=O)N[C@H](C(=O)OCc2cccc(C#N)c2)C(C)C)ccc2c1B(O)OC2 [Compound 14]	0.06	0.1	microsomal CLint [3]: 9.1 µL/min/mg; Efficacy in mouse model T. c., n/m (mice survived / total mice in group) ([4]; 1 × 10 mg/kg): 0/4 (1 × 10); microsomal CLint [5]: 2.7 µL/min/mg
Cc1c(C(=O)N[C@H](C(=O)OCc2ccc(C#N)cc2)C(C)C)ccc2c1B(O)OC2 [Compound 15]	0.05	0.15	–
Cc1c(C(=O)N[C@H](C(=O)OCc2ccc(F)c(Cl)c2)C(C)C)ccc2c1B(O)OC2 [Compound 16]	0.07	0.08	microsomal CLint [3]: 15 µL/min/mg; Efficacy in mouse model T. c., n/m (mice survived / total mice in group) ([4]; 1 × 10 mg/kg): 1/4; Efficacy in mouse model T. c., n/m (mice survived / total mice in group) ([4]; 2 × 10 mg/kg): 4/4; microsomal CLint [5]: 8.9 µL/min/mg
Cc1c(C(=O)N[C@H](C(=O)OCc2ccc(F)c(C(F)(F)F)c2)C(C)C)ccc2c1B(O)OC2 [Compound 17]	0.04	0.21	microsomal CLint [3]: 14 µL/min/mg; Efficacy in mouse model T. c., n/m (mice survived / total mice in group) ([4]; 1 × 10 mg/kg): 0/4 (1 × 10); microsomal CLint [5]: 10 µL/min/mg
Cc1c(C(=O)N[C@H](C(=O)OCc2cc(F)c(F)c(F)c2)C(C)C)ccc2c1B(O)OC2 [Compound 18]	0.06	0.2	microsomal CLint [3]: 9.7 µL/min/mg; Efficacy in mouse model T. c., n/m (mice survived / total mice in group) ([4]; 1 × 10 mg/kg): 1/4 (1 × 10); microsomal CLint [5]: 3.1 µL/min/mg
Cc1c(C(=O)N[C@H](C(=O)OCc2ccc(S(C)(=O)=O)cc2)C(C)C)ccc2c1B(O)OC2 [Compound 19]	0.44	0.61	microsomal CLint [3]: 2.6 µL/min/mg; Efficacy in mouse model T. c., n/m (mice survived / total mice in group) ([4]; 1 × 10 mg/kg): 0/4 (1 × 10); microsomal CLint [5]: 1.3 µL/min/mg
CC(C)[C@H](NC(=O)c1ccc2c(c1)B(O)OC2)C(=O)OCc1ccc(F)cc1 [Compound 20]	1	3	microsomal CLint [3]: 1.5 µL/min/mg; Efficacy in mouse model T. c., n/m (mice survived / total mice in group) ([4]; 4 × 10 mg/kg): 0/5 (4 × 10); microsomal CLint [5]: 1.3 µL/min/mg
CC(C)[C@H](NC(=O)c1ccc2c(c1C(F)F)B(O)OC2)C(=O)OCc1ccc(F)cc1 [Compound 22]	0.92	0.67	microsomal CLint [3]: 1.4 µL/min/mg; Efficacy in mouse model T. c., n/m (mice survived / total mice in group) ([4]; 1 × 10 mg/kg): 0/4 (1 × 10); microsomal CLint [5]: 0.9 µL/min/mg
CC(C)[C@H](NC(=O)c1ccc2c(c1C(F)(F)F)B(O)OC2)C(=O)OCc1ccc(F)cc1 [Compound 23]	51	37	–
CCCc1c(C(=O)N[C@H](C(=O)OCc2ccc(F)cc2)C(C)C)ccc2c1B(O)OC2 [Compound 25]	4.7	3	–
CC(C)[C@H](NC(=O)c1ccc2c(c1C1CC1)B(O)OC2)C(=O)OCc1ccc(F)cc1 [Compound 27]	0.71	3.9	–
Cc1c(C(=O)N[C@H](C(=O)OCc2ccc(F)cc2)C2CC2)ccc2c1B(O)OC2 [Compound 28]	0.38	0.12	–
Cc1c(C(=O)NC2(C(=O)OCc3ccc(F)cc3)CCC2)ccc2c1B(O)OC2 [Compound 32]	2.5	0.45	–
Cc1c(C(=O)N[C@H](C(=O)OCc2ccccn2)C(C)C)ccc2c1B(O)OC2 [Compound 36]	0.14	0.26	–
Cc1c(C(=O)N[C@H](C(=O)OCc2cccnc2)C(C)C)ccc2c1B(O)OC2 [Compound 37]	0.5	0.78	–
Cc1c(C(=O)N[C@H](C(=O)OCc2ccncc2)C(C)C)ccc2c1B(O)OC2 [Compound 38]	0.31	0.68	–
Cc1c(C(=O)N[C@H](C(=O)OCc2ncc(F)cn2)C(C)C)ccc2c1B(O)OC2 [Compound 40]	0.5	0.27	–
Cc1c(C(=O)N[C@H](C(=O)OCc2nccs2)C(C)C)ccc2c1B(O)OC2 [Compound 42]	0.19	0.2	–

Further lines, with some results ahead:

IC50 [1] [nM]	IC50 ([2]; Trypanosoma congolense, 72 h) [nM]	SMILES	other results
–	0.062	Cc1c(C(=O)N[C@H](C(=O)OCc2cscn2)C(C)C)ccc2c1B(O)OC2 [Compound 43]	–
980	5000	Cc1c(C(=O)N[C@H](C(=O)OCc2c[nH]cn2)C(C)C)ccc2c1B(O)OC2 [Compound 44]	–
0.33	0.37	Cc1c(C(=O)N[C@H](C(=O)OCc2ccc3ccccc3n2)C(C)C)ccc2c1B(O)OC2 [Compound 45]	–
14	5.2	Cc1c(C(=O)N[C@H](C(=O)OC(C)C)C(C)C)ccc2c1B(O)OC2 [Compound 56]	–
0.26	0.46	Cc1c(C(=O)N[C@H](C(=O)OCC(C)C)C(C)C)ccc2c1B(O)OC2 [Compound 57]	–
0.69	0.66	Cc1c(C(=O)N[C@H](C(=O)OC2CCC2)C(C)C)ccc2c1B(O)OC2 [Compound 58]	–
0.52	0.7	Cc1c(C(=O)N[C@H](C(=O)OC2CCCC2)C(C)C)ccc2c1B(O)OC2 [Compound 59]	–
0.78	< 0.005	Cc1c(C(=O)N[C@H](C(=O)OC2CCCCC2)C(C)C)ccc2c1B(O)OC2 [Compound 60]	–
0.21	0.36	Cc1c(C(=O)N[C@H](C(=O)OCC2CCCC2)C(C)C)ccc2c1B(O)OC2 [Compound 61]	–
0.78	2.3	Cc1c(C(=O)N[C@H](C(=O)OCCN2CCOCC2)C(C)C)ccc2c1B(O)OC2 [Compound 64]	–
1.2	9.4	Cc1c(C(=O)N[C@H](C(=O)OCCN2CCCC2)C(C)C)ccc2c1B(O)OC2 [Compound 65]	–
4.1	5.9	Cc1c(C(=O)N[C@H](C(=O)OCC2CCN(C)CC2)C(C)C)ccc2c1B(O)OC2 [Compound 66]	–
0.79	0.43	Cc1c(C(=O)N[C@H](C(=O)OCCc2ccc(F)cc2)C(C)C)ccc2c1B(O)OC2 [Compound 67]	–
37	1.8	Cc1c(C(=O)N[C@H](C(=O)OC2COC2)C(C)C)ccc2c1B(O)OC2 [Compound 68]	–
